Consider 12 compounds from patent US11400084B2 (BioTheryX, Inc., priority 2018, dated 2022).

Holding throughout (type): cell-based
One test relates to IL-1β. Put plainly: IL-1β inhibition assay, LPS-induced PBMCs or CD14+ monocytes, Meso Scale. The settings on record: 100 ng/mL LPS 18-24 h. On the procedure:
(§1) Either frozen primary blood mononuclear cells (PBMCs) or frozen CD14+ mobilized peripheral blood monocytes were purchased from AllCells (PB003F, Normal Peripheral Blood MNC (Alameda, Calif.)). Cells were quick thawed, washed 1-time with RPMI-1640 (10% FBS/1% Pen-Strep) and plated in 96 well plates at 200,000 cells per well. Cells were pretreated with DMSO only or with the indicated compound for 1 h and then induced with 100 ng/mL lipopolysaccharide (LPS) for 18-24 h. The supernatant was analyzed for IL-1β, IL-6, and TNFα, using Meso Scale assay according to manufacturer's protocol. The negative control wells were treated with DMSO.

For a further test, the system named is TNFα. The experiment in a line: TNF-α inhibition assay, LPS-induced PBMCs or CD14+ monocytes, Meso Scale. The settings on record: 100 ng/mL LPS 18-24 h. On the procedure: as §1
Another test deals with IL-2. Put plainly: IL-2 fold-change assay, anti-CD3 stimulated PBMCs, Mesoscale. The settings on record: Homo sapiens, PBMC, 24 h, fold difference from the DMSO control. How it is done: For the IL-2 analysis, 96 well plates were precoated with 1 μg/mL anti-human CD3 antibody (OKT3, eBioscience Inc., San Diego, Calif.). After washing with PBS, the indicated compound was added (50 μL/well) followed by PBMCs diluted at 3-4 million cells/mL (150 μL/well). Plates were incubated for 24 h and the supernatants collected for Mesoscale IL-2 analysis. IL-2 activity is measured as fold difference from the DMSO control.
In Table 7, the fold-change values are reported as “A”, “B”, “C”, or “D”. “A” represents a fold-change value of equal to or less than 1 (value≤1); “B” represents a fold-change value of more than 1 and equal to or less than 2 (1<value≤2); “C” represents a fold-change value of more than 2 and equal to or less than 3 (2<value≤3); and “D” represents a fold-change value of more than 3 (value>3).

Another test addresses T1, GSPT1 (Homo sapiens, UniProt P15170+Q96SW2).
T1 construct: whole cell protein extracts were separated on 4-12% SDS-polyacrylamide gels; endogenous in cells; host or cells: MV-4-11
The experiment in a line: Western blot GSPT1 degradation assay in MV-4-11 cells. The following applies: 1 μM, MV-4-11 cells, 6-8 hours. On the procedure:
(§2) MV-4-11 cells were grown in RPMI 1640 media supplemented with 10% fetal bovine serum, streptomycin and penicillin.
(§3) Cells were cultured at approximately 10^6 cells per mL and incubated in DMSO or the indicated compound for 6-8 hours. Whole cell extracts were prepared using RIPA buffer according to manufacturer's protocol (Pierce). Briefly, 3×10^6 cells were washed once in PBS, the cell pellets were resuspended in RIPA buffer and allowed to incubate for 15 minutes on ice. Cells debris was removed by centrifugation and the cleared whole cell lysates were transferred to new tubes for further analysis.
(§4) For Western blot analysis, whole cell protein extracts were separated on 4-12% SDS-polyacrylamide gels, transferred to nitrocellulose and probed with the indicated primary antibodies. Membranes were subsequently washed and probed with the appropriate IRDye secondary antibodies (LI-COR). The signal was detected using the Odyssey Imaging System (LI-COR).
(§5) The following antibodies were used in these studies: Anti-eRF3/GSPT1: Abcam, ab126090 (Cambridge, Mass.); Anti-Ikaros: Abcam, ab191394 (Cambridge, Mass.); Anti-CK1α: Abcam, ab108296 (Cambridge, Mass.); β-actin (8H10D10) mouse monoclonal antibody: Cell Signaling Technology, #3700 (Danvers, Mass.); IRDye 680RD Goat anti-rabbit antibody: LI-COR, 926-68071 (Lincoln, Nebr.); IRDye 800CW Goat anti-mouse antibody: LI-COR, 926-32210 (Lincoln, Nebr.).
(§6) In each of Tables 1-3, the % degradation values are reported as “A”, “B”, “C”, or “D.” “A” represents a % degradation value of less than 25% (value<25%); “B” represents a % degradation value of equal to or more than 25% and less than 50% (25%≤value<50%); “C” represents a % degradation value of equal to or more than 50% and less than 75% (50%≤value<75%); and “D” represents a % degradation value of equal to or more than 75% (value≥75%).
Background: In western blotting, separated proteins are transferred to a membrane and probed.

A further test concerns the target T2, IKAROS (Homo sapiens, UniProt Q13422+Q96SW2).
T2 construct: endogenous in cells; host or cells: MV-4-11
Put plainly: Western blot IKAROS degradation assay in MV-4-11 cells. The settings on record: 6-8 hours. How it is done: as §2, §3, §4, §5, §6

A further test has as its system MOLM-13 cells. Put plainly: MOLM-13 cell viability assay (CellTiter-Glo 2, 3 days, 2500 cells/well). The settings on record: Homo sapiens, MOLM-13, 72 h, percentage of DMSO control. How it is done: MOLM-13 cells were cultured in RPMI 1640 media supplemented with 10% fetal bovine serum, streptomycin and penicillin, and were plated in white walled 96-well plates at 2500 cells/well. Cells were incubated in DMSO (control) or the indicated compound for 3 days at 37° C. and 5% CO2. Following the incubation period, 100 μL of CellTiterGlow2 (CTG2) reagent (CellTiter-Glo®2 Luminescent Cell Viability Assay, Promega (Madison, Wis.)) was added to each well. Following a 10 minutes incubation with shaking, luminescence was measured using the EnVision Multimode plate reader.
The MOLM-13 cell viability values, measured as percentages of the DMSO control, are reported in Table 8 as “A”, “B”, “C”, or “D.” “A” represents a % viability value of less than 40% (value<40%). “B” represents a % viability value of equal to or more than 40% and less than 60% (40%≤value<60%). “C” represents a % viability value of equal to or more than 60% and less than 90% (60%≤value<90%). “D” represents a % viability value of equal or more than 90% (value≥90%).

Each structure is given as a SMILES string. Where only a bound is given, the exact number is not on record here.

T1 sequence (P15170 whole entry): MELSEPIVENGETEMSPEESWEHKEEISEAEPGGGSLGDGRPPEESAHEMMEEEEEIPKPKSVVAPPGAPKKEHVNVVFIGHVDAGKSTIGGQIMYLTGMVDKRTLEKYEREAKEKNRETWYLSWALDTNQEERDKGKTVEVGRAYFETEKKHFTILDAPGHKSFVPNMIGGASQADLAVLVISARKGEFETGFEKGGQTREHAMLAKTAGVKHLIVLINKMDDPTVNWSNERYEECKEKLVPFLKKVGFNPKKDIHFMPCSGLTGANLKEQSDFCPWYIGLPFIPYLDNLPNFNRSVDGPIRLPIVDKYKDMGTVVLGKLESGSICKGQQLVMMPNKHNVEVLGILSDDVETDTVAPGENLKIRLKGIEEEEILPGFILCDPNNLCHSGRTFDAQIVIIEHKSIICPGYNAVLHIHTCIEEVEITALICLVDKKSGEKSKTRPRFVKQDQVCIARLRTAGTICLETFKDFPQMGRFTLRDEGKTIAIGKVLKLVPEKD
T1 sequence (Q96SW2 whole entry): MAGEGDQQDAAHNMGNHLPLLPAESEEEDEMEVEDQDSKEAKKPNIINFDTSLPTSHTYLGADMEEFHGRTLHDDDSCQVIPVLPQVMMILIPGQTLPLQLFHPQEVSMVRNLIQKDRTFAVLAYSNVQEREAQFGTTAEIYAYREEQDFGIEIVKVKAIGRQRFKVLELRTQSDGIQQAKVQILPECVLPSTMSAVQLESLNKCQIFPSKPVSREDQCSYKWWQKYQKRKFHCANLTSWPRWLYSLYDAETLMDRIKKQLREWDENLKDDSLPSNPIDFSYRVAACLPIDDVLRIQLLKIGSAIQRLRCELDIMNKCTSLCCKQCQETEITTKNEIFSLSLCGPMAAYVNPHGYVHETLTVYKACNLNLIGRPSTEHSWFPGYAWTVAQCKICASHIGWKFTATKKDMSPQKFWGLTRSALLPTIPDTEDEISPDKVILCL
T1 sequence (Q16531 whole entry partner): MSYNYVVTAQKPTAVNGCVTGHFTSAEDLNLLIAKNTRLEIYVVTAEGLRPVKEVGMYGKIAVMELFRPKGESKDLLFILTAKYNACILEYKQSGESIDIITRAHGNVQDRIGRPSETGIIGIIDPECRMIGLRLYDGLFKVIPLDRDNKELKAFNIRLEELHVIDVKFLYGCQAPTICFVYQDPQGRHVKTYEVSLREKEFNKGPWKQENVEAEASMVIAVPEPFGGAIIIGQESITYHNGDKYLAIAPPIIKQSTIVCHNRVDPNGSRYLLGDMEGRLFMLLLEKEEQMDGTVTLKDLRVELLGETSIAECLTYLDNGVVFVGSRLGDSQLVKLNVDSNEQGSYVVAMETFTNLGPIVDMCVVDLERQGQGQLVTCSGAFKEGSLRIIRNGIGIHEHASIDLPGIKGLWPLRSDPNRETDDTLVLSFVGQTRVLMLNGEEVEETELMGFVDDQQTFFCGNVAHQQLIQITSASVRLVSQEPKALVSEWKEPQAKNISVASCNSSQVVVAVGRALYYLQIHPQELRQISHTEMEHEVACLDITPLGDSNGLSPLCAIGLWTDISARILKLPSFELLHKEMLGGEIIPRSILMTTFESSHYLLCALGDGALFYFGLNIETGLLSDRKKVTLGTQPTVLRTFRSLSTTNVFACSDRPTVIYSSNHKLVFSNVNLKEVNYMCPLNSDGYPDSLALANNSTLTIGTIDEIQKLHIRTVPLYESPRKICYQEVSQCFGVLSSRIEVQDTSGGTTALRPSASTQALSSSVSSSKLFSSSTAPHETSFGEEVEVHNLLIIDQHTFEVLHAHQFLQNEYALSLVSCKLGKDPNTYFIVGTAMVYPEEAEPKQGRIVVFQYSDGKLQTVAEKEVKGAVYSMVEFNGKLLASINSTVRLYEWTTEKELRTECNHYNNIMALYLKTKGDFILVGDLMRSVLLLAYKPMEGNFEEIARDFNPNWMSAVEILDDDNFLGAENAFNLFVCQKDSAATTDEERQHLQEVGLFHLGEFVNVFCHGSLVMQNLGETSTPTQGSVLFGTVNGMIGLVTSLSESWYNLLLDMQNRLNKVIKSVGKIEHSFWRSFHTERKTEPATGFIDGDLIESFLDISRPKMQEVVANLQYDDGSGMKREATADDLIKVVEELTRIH
T2 sequence (Q13422 whole entry): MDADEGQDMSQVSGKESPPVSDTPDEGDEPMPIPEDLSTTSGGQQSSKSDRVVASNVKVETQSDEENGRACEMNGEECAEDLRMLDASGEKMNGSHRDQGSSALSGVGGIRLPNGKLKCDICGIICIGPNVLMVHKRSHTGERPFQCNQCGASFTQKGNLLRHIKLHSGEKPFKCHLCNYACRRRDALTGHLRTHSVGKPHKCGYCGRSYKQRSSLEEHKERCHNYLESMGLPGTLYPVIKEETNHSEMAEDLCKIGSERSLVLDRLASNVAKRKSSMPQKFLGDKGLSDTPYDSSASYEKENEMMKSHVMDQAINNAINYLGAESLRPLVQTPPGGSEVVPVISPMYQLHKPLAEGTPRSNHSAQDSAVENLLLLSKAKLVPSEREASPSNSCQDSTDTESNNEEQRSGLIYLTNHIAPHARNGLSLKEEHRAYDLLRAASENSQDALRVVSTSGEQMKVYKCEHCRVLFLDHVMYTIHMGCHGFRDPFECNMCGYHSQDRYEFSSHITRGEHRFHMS
T2 sequence (Q96SW2 whole entry): as the sequence (Q96SW2 whole entry) above
T2 sequence (Q16531 whole entry partner): as the sequence (Q16531 whole entry partner) above

As for `Cc1ccc(NC(C)C(=O)NCc2scc3c2CN(C2CCC(=O)NC2=O)C3=O)cc1Cl` (stereo not drawn) [Compound 7, 2-((3-chloro-4-methylphenyl)amino)-N-((5-(2,6-dioxopiperidin-3-yl)-4-oxo-5,6-dihydro-4H-thieno[3,4-c]pyrrol-1-yl)methyl)propanamide], the inhibition at 1 µM in the test with IL-1β and in the test on TNFα was greater than 75% in each case. In the test with IL-2, this compound gave a fold induction at 1 µM of 2 to 3.

With `CN(C)c1ccc(NCC(=O)NCc2scc3c2CN(C2CCC(=O)NC2=O)C3=O)cc1Cl` (stereo not drawn) [Compound 8, 2-((3-chloro-4-(dimethylamino)phenyl)amino)-N-((5-(2,6-dioxopiperidin-3-yl)-4-oxo-5,6-dihydro-4H-thieno[3,4-c]pyrrol-1-yl)methyl)acetamide], the inhibition at 1 µM in the test with IL-1β and in the test with TNFα was greater than 75% throughout. Further, the fold induction at 1 µM with IL-2 lay within 1 to 2.

In the case of `Cc1ccc(NCC(=O)NCc2ccc3c(c2)CN([C@H]2CCCC(=O)NC2=O)C3=O)cc1Cl` [Compound 12], at GSPT1, the “GSPT1 % Degradation at 1 μM” value is “C (a % degradation value of equal to or more than 50% and less than 75% (50%≤value<75%))”. Also, the inhibition at 1 µM in the test with IL-1β and in the test on TNFα was less than 30% in each case. In addition, in the test on IL-2, the fold induction at 1 µM is 1 to 2.

Regarding `Cc1ccc(NCC(=O)NCc2cc3c(s2)CN(C2CCC(=O)NC2=O)C3=O)cc1Cl` (stereo not drawn) [Compound 6, 2-((3-chloro-4-methylphenyl)amino)-N-((5-(2,6-dioxopiperidin-3-yl)-4-oxo-5,6-dihydro-4H-thieno[2,3-c]pyrrol-2-yl)methyl)acetamide], the inhibition at 1 µM with IL-1β and with TNFα was less than 30% in each case.

As for `Cc1ccc(NCC(=O)NCc2scc3c2CN(C2CCC(=O)NC2=O)C3=O)cc1N(C)C` (stereo not drawn) [Compound 4, 2-((3-(dimethylamino)-4-methylphenyl)amino)-N-((5-(2,6-dioxopiperidin-3-yl)-4-oxo-5,6-dihydro-4H-thieno[3,4-c]pyrrol-1-yl)methyl)acetamide], on IKAROS, the “IKAROS % Degradation at 1 μM” value was “B (a % degradation value of equal to or more than 25% and less than 50% (25%≤value<50%))”. Besides, at GSPT1, the “GSPT1 % Degradation at 1 μM” value was “B (a % degradation value of equal to or more than 25% and less than 50% (25%≤value<50%))”. Also, the inhibition at 1 µM in the test with IL-1β and with TNFα was 50 to 75% in each case. In the test with IL-2, the fold induction at 1 µM lay in the range of 2 to 3. This compound also yielded a viability at 1 µM with MOLM-13 cells greater than 90%.

For the compound `Cc1ccc(NCC(=O)NCc2scc3c2CN(C2CCC(=O)NC2=O)C3=O)cc1Cl` (stereo not drawn) [Compound 2, 2-((3-chloro-4-methylphenyl)amino)-N-((5-(2,6-dioxopiperidin-3-yl)-4-oxo-5,6-dihydro-4H-thieno[3,4-c]pyrrol-1-yl)methyl)acetamide], the “IKAROS % Degradation at 1 μM” value on IKAROS is “D (a % degradation value of equal to or more than 75% (value≥75%))”. Besides, the “GSPT1 % Degradation at 1 μM” value on GSPT1 was “C (a % degradation value of equal to or more than 50% and less than 75% (50%≤value<75%))”. The inhibition at 1 µM was greater than 75% in the test on IL-1β and 50 to 75% in the test with TNFα. In the test on IL-2, this compound had a fold induction at 1 µM of 1 to 2. In the test with MOLM-13 cells, this compound had a viability at 1 µM greater than 90%.

For `Cc1ccc(NC(C)C(=O)NCc2ccc3c(c2)CN(C2CCC(=O)NC2=O)C3=O)cc1Cl` (stereo not drawn) [Compound 15, 2-((3-chloro-4-methylphenyl)amino)-N-((2-(2,6-dioxopiperidin-3-yl)-1-oxoisoindolin-5-yl)methyl)propanamide], the fold induction at 1 µM in the test with IL-2 was in the range of 1 to 2.

For the compound `O=C(CNc1ccc(CN2CCOCC2)cc1)NCc1scc2c1CN(C1CCC(=O)NC1=O)C2=O` (stereo not drawn) [Compound 9, N-((5-(2,6-dioxopiperidin-3-yl)-4-oxo-5,6-dihydro-4H-thieno[3,4-c]pyrrol-1-yl)methyl)-2-((4-(morpholinomethyl)phenyl)amino)acetamide], the inhibition at 1 µM with IL-1β and with TNFα was 50 to 75% throughout. Besides, the fold induction at 1 µM in the test on IL-2 was in the range of 1 to 2.

Consider `Cc1cc(NCC(=O)NCc2ccc3c(c2)CN(C2CCC(=O)NC2=O)C3=O)ccc1N1CCOCC1` (stereo not drawn) [Compound 23, N-((2-(2,6-dioxopiperidin-3-yl)-1-oxoisoindolin-5-yl)methyl)-2-((3-methyl-4-morpholinophenyl)amino)acetamide], for which, at IKAROS, the “IKAROS % Degradation at 1 μM” value was “C (a % degradation value of equal to or more than 50% and less than 75% (50%≤value<75%))”. The “GSPT1 % Degradation at 1 μM” value at GSPT1 was “B (a % degradation value of equal to or more than 25% and less than 50% (25%≤value<50%))”. Besides, the inhibition at 1 µM in the test on IL-1β and with TNFα was 30 to 50% each time. For the same compound, the fold induction at 1 µM with IL-2 lay within 1 to 2. The viability at 1 µM with MOLM-13 cells was in the range of 40 to 60%.

On to `Cc1ccc(NCC(=O)NCc2ccc3c(c2)C(=O)N(C2CCC(=O)NC2=O)C3=O)cc1Cl` (stereo not drawn) [Compound 19, 2-((3-chloro-4-methylphenyl)amino)-N-((2-(2,6-dioxopiperidin-3-yl)-1,3-dioxoisoindolin-5-yl)methyl)acetamide], for which, at IKAROS, the “IKAROS % Degradation at 1 μM” value was “B (a % degradation value of equal to or more than 25% and less than 50% (25%≤value<50%))”. In addition, the “GSPT1 % Degradation at 1 μM” value on GSPT1 is on record as “D (a % degradation value of equal to or more than 75% (value≥75%))”. Further, the inhibition at 1 µM in the test on TNFα lay within 30 to 50%. Besides, the fold induction at 1 µM in the test on IL-2 is no more than 1. The viability at 1 µM in the test with MOLM-13 cells was in the range of 60 to 90%.

Consider `O=C(CNc1cccc(CN2CCOCC2)c1)NCc1scc2c1CN(C1CCC(=O)NC1=O)C2=O` (stereo not drawn) [Compound 11, N-((5-(2,6-dioxopiperidin-3-yl)-4-oxo-5,6-dihydro-4H-thieno[3,4-c]pyrrol-1-yl)methyl)-2-((3-(morpholinomethyl)phenyl)amino)acetamide], for which, at IKAROS, the “IKAROS % Degradation at 1 μM” value is “B (a % degradation value of equal to or more than 25% and less than 50% (25%≤value<50%))”. Also, the “GSPT1 % Degradation at 1 μM” value on GSPT1 is “B (a % degradation value of equal to or more than 25% and less than 50% (25%≤value<50%))”. Also, the inhibition at 1 µM with IL-1β and with TNFα was 30 to 50% in each case. In the test on IL-2, this compound showed a fold induction at 1 µM of 1 to 2. The compound further displayed a viability at 1 µM in the test with MOLM-13 cells of less than 40%.

On to `O=C(CNc1ccc(N2CCOCC2)c(Cl)c1)NCc1ccc2c(c1)CN(C1CCC(=O)NC1=O)C2=O` (stereo not drawn) [Compound 22, 2-((3-chloro-4-morpholinophenyl)amino)-N-((2-(2,6-dioxopiperidin-3-yl)-1-oxoisoindolin-5-yl)methyl)acetamide], for which the inhibition at 1 µM in the test on IL-1β and with TNFα was 50 to 75% each time. The fold induction at 1 µM in the test on IL-2 was in the range of 2 to 3.

A word on the inhibition: it is the relative decrease from the control value, in per cent. A low value points to a response near the control. For orientation: fold induction means the signal under treatment as a multiple of the control signal. A high value points to a strong induction. As a reminder, the viability is a read-out of living cells in per cent, often relative to untreated cells. Read a low viability as more harm to the cells.
